Several values for one entry are separate records, joined by “and”; a condition that tells them apart may be missing. Equal values may be shown once. Where a name gives a salt, the structure may show the parent alone. Marks after values point to notes of the source that are not given here.
Assays:
[1] = test system: eyes of patients suffering from severe night vision difficulty; assay: Example 1 clinical study: reduction in pupil diameter; format: in vivo, humans; details: from percentage of eyes with at least 10% reduction in pupil diameter after the last dose, second period, 1% (w/v) (FIG. 4B)
From the text: Sixty patients with normal day vision (i.e., 20/40 or better) but which suffer from severe night vision difficulty were enrolled in the study. During the first period of the study, patients were randomized into three groups. The groups received either placebo, 0.5% (w/v) phentolamine mesylate, or 1.0% (w/v) phentolamine mesylate once daily for 15 days. The patients were observed on days 1, 4, 8, and 15 prior to administering the ophthalmic solution of phentolamine mesylate and then observed again two hours after the ophthalmic solution of phentolamine mesylate was administered. During the second period of the study, all sixty patients were instructed to administer an ophthalmic solution of phentolamine mesylate (1% (w/v)) as needed, but no more than once daily to each eye. The ophthalmic solution of phentolamine mesylate contained: 1% (w/v) phentolamine mesylate, 4% (w/v) mannitol, 3 mM sodium acetate, and water. The placebo was a solution containing 4% (w/v) mannitol, 3 mM sodium acetate, and water.

[2] = test system: eyes of patients with pupil size in dim light of greater than 7 mm; assay: Example 2 clinical study: pupil diameter by NeurOptics pupilometer; one drop oxymetazoline (Visine LR) then one drop test article in Tears Naturale II in each eye; format: in vivo, humans; details: for Range of pupil diameters: immediately prior to administration
Method: Sixteen patients were randomized into four groups (of four subjects each). Each group was treated on three successive study visits separated by at least 4 days with one drop of ophthalmic oxymetazoline solution (Visine LR®) in each eye followed by one drop test article in each eye. The test article was a 0.2% (w/v) phentolamine mesylate solution, 0.4% (w/v) phentolamine mesylate solution, 0.8% (w/v) phentolamine mesylate solution, or placebo. Test articles contained the designed amount of phentolamine mesylate in a solution of Tears Naturale II® (from Alcon Labs). Placebo was just Tears Naturale II® (from Alcon Labs). Tears Naturale II® (from Alcon Labs) contains Dextran 70 (0.1% by weight), Hydroxypropyl Methylcellulose 2910 (0.3% by weight), Polyquarternium-1 (0.001% by weight), potassium chloride, water (purified), sodium borate, sodium chloride, and hydrochloric acid and/or sodium hydroxide as necessary to adjust the pH. The patients' eye redness and pupil diameters were recorded at baseline (i.e., prior to treatment administration), and at 30 minutes, 1 hour, 2 hours, 4 hours, and 8 hours after administration of test articles. The incidence of any treatment-emergent adverse events was also recorded. Total study duration was approximately nine hours.
Eye redness of patients' eyes was evaluated by the research assistant and recorded as a single integer of value 0 (no redness) to 4 (extreme redness) at baseline and each time point after treatment. Pupil diameters were measured to within 0.1 mm for each eye at baseline and each subsequent time point using a NeurOptics™ pupilometer. Monocular high contrast visual acuity was measured for each eye under photopic conditions at baseline and each subsequent time point in a darkened room using a Precision Vision™ High Contrast (100% tint) Visual Acuity Chart (Catalog #2102) backlit by the Precision Vision Illumination Box. Monocular low contrast visual acuity was measured for each eye under photopic conditions at baseline and each subsequent time point in a darkened room using a Precision Vision™ Low Contrast (5% tint) Visual Acuity Chart (Catalog #2186) backlit by the Precision Vision Illumination Box. Effect of treatment on glare was assessed using an experimental test method consisting of a panel with a high wattage central light emitting diode (LED) and a set of 7 lower wattage red LEDs radiating horizontally and vertically from the central light.
Comparisons of changes in mean values within treatment groups were tested for significance using two-tailed paired two sample t-tests with a threshold for significance set at p<0.01 (Bonferroni Correction for multiple paired t-tests). Differences between treatment groups with respect to mean values for pupil size over the course of the study were tested for significance using repeated measure ANOVA (which discards data from subjects lacking any data points). Differences in mean eye redness between treatment groups were evaluated using Kruskal-Wallis nonparametric testing. Differences in means between treatment groups at individual time points were tested for significance using one-way ANOVA.

[3] = 0.2% (w/v) solution, 30 min after treatment
[4] = 0.2% (w/v) solution, 1 hour after treatment
[5] = 0.2% (w/v) solution, 2 hours after treatment
[6] = 0.2% (w/v) solution, 4 hours after treatment
[7] = 0.2% (w/v) solution, 8 hours after treatment
[8] = 0.2% (w/v) solution, Baseline, prior to treatment
[9] = 0.4% (w/v) solution, 30 min after treatment
[10] = 0.4% (w/v) solution, 1 hour after treatment
[11] = 0.4% (w/v) solution, 2 hours after treatment
[12] = 0.4% (w/v) solution, 4 hours after treatment
[13] = 0.4% (w/v) solution, 8 hours after treatment
[14] = 0.4% (w/v) solution, Baseline, prior to treatment
[15] = 0.8% (w/v) solution, 30 min after treatment
[16] = 0.8% (w/v) solution, 1 hour after treatment
[17] = 0.8% (w/v) solution, 2 hours after treatment
[18] = 0.8% (w/v) solution, 4 hours after treatment
[19] = 0.8% (w/v) solution, 8 hours after treatment
[20] = 0.8% (w/v) solution, Baseline, prior to treatment

Which results are given for Cc1ccc(N(CC2=NCCN2)c2cccc(O)c2)cc1 [Phentolamine Mesylate, phentolamine mesylate]?
pharmacokinetic half-life [1]: approximately two; Maximum pupil diameter [2, 3]: 9.2 mm; Mean change in pupil diameter from baseline [2, 3]: −0.04 mm; Mean pupil diameter [2, 3]: 7.74 mm; Minimum pupil diameter [2, 3]: 5.1 mm; Maximum pupil diameter [2, 4]: 8.9 mm; Mean change in pupil diameter from baseline [2, 4]: −0.24 mm; Mean pupil diameter [2, 4]: 7.54 mm; Minimum pupil diameter [2, 4]: 4.9 mm; Maximum pupil diameter [2, 5]: 8.4 mm; Mean change in pupil diameter from baseline [2, 5]: −0.75 mm; Mean pupil diameter [2, 5]: 7.01^c mm; Minimum pupil diameter [2, 5]: 4.7 mm; Maximum pupil diameter [2, 6]: 8.0 mm; Mean change in pupil diameter from baseline [2, 6]: −0.69 mm; Mean pupil diameter [2, 6]: 7.30^d mm; Minimum pupil diameter [2, 6]: 6.3 mm; Maximum pupil diameter [2, 7]: 8.5 mm; Mean change in pupil diameter from baseline [2, 7]: −0.59 mm; Mean pupil diameter [2, 7]: 7.18 mm; Minimum pupil diameter [2, 7]: 4.7 mm; Range of pupil diameters ([2]; 0.2% (w/v) solution, Baseline): 5.2-8.8 mm; Maximum pupil diameter [2, 8]: 8.8 mm; Mean pupil diameter [2, 8]: 7.8 mm and 7.78 mm; Minimum pupil diameter [2, 8]: 5.2 mm; change from baseline in mean pupil diameter, significance ([2]; 0.2%, 0.4% and 0.8% (w/v), by one hour post treatment, p<0.01): significant; mean pupil diameter between different doses ([2]; 0.2%, 0.4%, 0.8% (w/v), any time point): no statistically significant differences; Maximum pupil diameter [2, 9]: 8.8 mm; Mean change in pupil diameter from baseline [2, 9]: 0.00 mm; Mean pupil diameter [2, 9]: 7.72 mm; Minimum pupil diameter [2, 9]: 5.6 mm; Maximum pupil diameter [2, 10]: 8.3 mm; Mean change in pupil diameter from baseline [2, 10]: −0.29 mm; Mean pupil diameter [2, 10]: 7.41 mm; Minimum pupil diameter [2, 10]: 5.5 mm; Maximum pupil diameter [2, 11]: 8.4 mm; Mean change in pupil diameter from baseline [2, 11]: −0.64 mm; Mean pupil diameter [2, 11]: 7.05 mm; Minimum pupil diameter [2, 11]: 5.0 mm; Maximum pupil diameter [2, 12]: 8.1 mm; Mean change in pupil diameter from baseline [2, 12]: −0.74 mm; Mean pupil diameter [2, 12]: 7.01 mm; Minimum pupil diameter [2, 12]: 5.0 mm; Maximum pupil diameter [2, 13]: 8.6 mm; Mean change in pupil diameter from baseline [2, 13]: −0.74 mm; Mean pupil diameter [2, 13]: 7.01 mm; Minimum pupil diameter [2, 13]: 4.8 mm; Range of pupil diameters ([2]; 0.4% (w/v) solution, Baseline): 5.8-8.6 mm; Maximum pupil diameter [2, 14]: 8.6 mm; Mean pupil diameter [2, 14]: 7.7 mm and 7.71 mm; Minimum pupil diameter [2, 14]: 5.8 mm; Maximum pupil diameter [2, 15]: 9.2 mm; Mean change in pupil diameter from baseline [2, 15]: −0.10 mm; Mean pupil diameter [2, 15]: 7.87 mm; Minimum pupil diameter [2, 15]: 5.2 mm; Maximum pupil diameter [2, 16]: 9.1 mm; Mean change in pupil diameter from baseline [2, 16]: −0.27 mm; Mean pupil diameter [2, 16]: 7.69 mm; Minimum pupil diameter [2, 16]: 5.1 mm; Maximum pupil diameter [2, 17]: 8.7 mm; Mean change in pupil diameter from baseline [2, 17]: −0.66 mm; Mean pupil diameter [2, 17]: 7.30 mm; Minimum pupil diameter [2, 17]: 4.7 mm; Maximum pupil diameter [2, 18]: 8.6 mm; Mean change in pupil diameter from baseline [2, 18]: −0.64 mm; Mean pupil diameter [2, 18]: 7.32 mm; Minimum pupil diameter [2, 18]: 5.5 mm; Maximum pupil diameter [2, 19]: 8.7 mm; Mean change in pupil diameter from baseline [2, 19]: −0.56 mm; Mean pupil diameter [2, 19]: 7.40 mm; Minimum pupil diameter [2, 19]: 4.7 mm; Range of pupil diameters ([2]; 0.8% (w/v) solution, Baseline): 4.6-9.3 mm; Maximum pupil diameter [2, 20]: 9.3 mm; Mean pupil diameter [2, 20]: 8.0 mm and 7.96 mm; Minimum pupil diameter [2, 20]: 4.6 mm; mean pupil diameter compared to placebo (ad hoc Fisher's test) ([2]; any concentration (0.2%, 0.4%, 0.8% w/v), 2, 4 and 8 hours): significant differences

Source: US11000509B2, “Methods and compositions for daily ophthalmic administration of phentolamine to improve visual performance” (Ocuphire Pharma, Inc., priority 2013, dated 2021)
